Experimental data from paper PMC9645260, “Small-molecule inhibitors of P-Rex guanine-nucleotide exchange factors” (Small GTPases, 2022).

Key:
P-Rex1 DHPH domains = target: T1, P-Rex1 DHPH domains (Homo sapiens, UniProt Q8TCU6); experiment: Liposome-based GEF activity assay, isolated P-Rex1 DHPH domains; format: biochemical; conditions: for P-Rex1 Rac-GEF activity reduced to / remaining activity at 10 µM: 10 µM compound; for P-Rex1 Rac-GEF activity reduced to: P-Rex1 DHPH domains; for IC50: liposome-based GEF assay, 200 nM prenylated EE-Rac2 as substrate, read-out: IC50 of inhibition of P-Rex1 DHPH Rac-GEF activity
T1 construct: 100 nM EE-P-Rex1 DHPH domains (PREX-in1, compounds 2–10 and 30–128); made in house; host or cells: Sf9 cells (baculovirus)
Protocol: (§1) Full-length N-terminally EE-tagged P-Rex1, P-Rex2, the P-Rex1 DH and DHPH domains and the P-Rex2 DH domain were produced in Sf9 cells using baculoviral transduction and were purified using anti-EE beads, as previously described. Briefly, frozen pellets from 500 ml of Sf9 culture infected with P-Rex expressing high-titre baculovirus were resuspended in ice-cold lysis Sf9-cell lysis buffer 2 (1x PBS, 1% Triton X-100, 5 mM EGTA, 1 mM EDTA, 25 mM NaF, 20 mM β-glycerophosphate, 1 mM DTT, 100 µM PMSF, 10 μg/ml each of leupeptin, pepstatin A, aprotinin and antipain) for 5 min and then ultracentrifuged at 118,000 × g for 1 h at 4°C. Supernatants were incubated with pre-washed anti-EE beads for 90 min on ice with end-over-end rotation. Beads were washed 4 times in wash buffer (2x PBS, 0.1% Triton X-100, 1 mM EGTA) and 5 times in elution buffer (1x PBS, 10% glycerol, 1 mM DTT, 1 mM EGTA, 0.01% Na azide), and protein was eluted by incubation with elution buffer containing Ac-EEYMPME peptide as described above. Protein was concentrated in a YM-100 Centricon (Millipore) at 5000 × g at 4°C. Fatty acid-free BSA and glycerol were added to final concentrations of 2 mg/ml and 50%, respectively. Protein concentration and purity were determined by coomassie staining of SDS-PAGE gels. Full-length Tiam1, expressed in and purified from Sf9 cells, was a kind gift from Angeliki Malliri, CRUK Manchester Institute, UK. The ITSN1 DHPH domains and Ect2 DHPH domains, produced in and purified from bacteria, were a kind gift from Kent Rossman, University of North Carolina, Chapel Hill, USA. The DOCK10 DHR2 domain, produced in and purified from bacteria, was a kind gift from Danni Fan, Institute of Cancer Research, London, UK. All small GTPase and GEF proteins were stored in aliquots at −80°C and were snap-frozen in liquid N2 after each use.
Liposome-based GEF activity assays were carried out essentially as described, except that GEFs were incubated with inhibitor compounds prior to the assay. GEFs (full-length P-Rex1, P-Rex2, and Tiam1, P-Rex1 DH and DHPH domains, P-Rex2 DH domain, ITSN1 DHPH domains, ECT2 DHPH domains or DOCK10 DHR2 domain) were diluted in 20 mM HEPES (pH 7.0 at 4°C), 200 mM KCl, 10% ethylene glycerol, 1% betaine, 500 µM EGTA, 0.01% azide. […] The final 10 µl samples contained GTPase, GEF and inhibitor at concentrations as stated, in 20 mM HEPES pH 7.5, 100 mM NaCl, 1 mM MgCl2, 1 mM EGTA, 1 mM DTT, 10 mg/ml fatty acid-free BSA, liposomes consisting of phosphatidylcholine, -serine and -inositol (200 µM each), with or without 10 µM PIP3, 1 µM GTPγS and 80 nM (1 µCi) ^35S-GTPγS. Positive controls contained additionally 2 mM EDTA to induce maximal GTP-loading of the GTPase. Samples were incubated at 30°C for 10 min, and reactions were stopped by the addition of 400 µl ice-cold wash buffer (1x PBS, 1 mM EGTA, 10 mM MgCl2, 1% Triton X-100, 100 µM GTP). Small GTPases were isolated using anti-EE antibody-coupled Sepharose beads or glutathione Sepharose beads, as appropriate, by incubation on ice for 90 min with end-over-end rotation, four washes in ice-cold wash buffer and resuspension of beads in Ultima Gold scintillation fluid (Perkin Elmer). ^35S-GTPγS incorporation was assessed by scintillation counting (Packard 1600TR, Liquid Scintillation Analyser).

P-Rex1 DH domain = target: T2, P-Rex1 DH domain (Homo sapiens, UniProt Q8TCU6); experiment: Liposome-based GEF activity assay, isolated P-Rex1 DH domain; format: biochemical; conditions: 10 µM compound
T2 construct: 200 nM iDH EE-P-Rex1 DH domain (compounds 11–29); made in house; host or cells: Sf9 cells (baculovirus)
Protocol: as §1, with “The ITSN1 DHPH domains and Ect2 DHPH domains, produced in and purified from bacteria, were a kind gift from Kent Rossman, University of North Carolina, Chapel Hill, USA. The DOCK10 DHR2 domain, produced in and purified from bacteria, was a kind gift from Danni Fan, Institute of Cancer Research, London, UK. All small GTPase and GEF proteins were stored in aliquots at −80°C and were snap-frozen in liquid N2 after each use.” left out
Liposome-based GEF activity assays were carried out essentially as described, except that GEFs were incubated with inhibitor compounds prior to the assay. […] Small GTPases were isolated using anti-EE antibody-coupled Sepharose beads or glutathione Sepharose beads, as appropriate, by incubation on ice for 90 min with end-over-end rotation, four washes in ice-cold wash buffer and resuspension of beads in Ultima Gold scintillation fluid (Perkin Elmer). ^35S-GTPγS incorporation was assessed by scintillation counting (Packard 1600TR, Liquid Scintillation Analyser).

[1] = 100 nM EE-P-Rex1 DHPH domains, 200 nM prenylated EE-Rac1, PREX-in1, compounds 2-10 and 30-128

T1 sequence (Q8TCU6 49-392 limits assumed): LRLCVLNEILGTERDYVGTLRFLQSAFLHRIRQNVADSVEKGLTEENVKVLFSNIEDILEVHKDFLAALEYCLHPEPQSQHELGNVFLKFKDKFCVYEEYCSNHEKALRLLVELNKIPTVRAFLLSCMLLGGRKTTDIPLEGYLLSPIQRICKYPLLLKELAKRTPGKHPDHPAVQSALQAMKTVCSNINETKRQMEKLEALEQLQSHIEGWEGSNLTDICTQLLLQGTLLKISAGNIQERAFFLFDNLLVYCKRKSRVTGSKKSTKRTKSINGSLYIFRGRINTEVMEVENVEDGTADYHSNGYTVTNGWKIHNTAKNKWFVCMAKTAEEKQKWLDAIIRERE
T2 sequence (Q8TCU6 49-240 limits assumed): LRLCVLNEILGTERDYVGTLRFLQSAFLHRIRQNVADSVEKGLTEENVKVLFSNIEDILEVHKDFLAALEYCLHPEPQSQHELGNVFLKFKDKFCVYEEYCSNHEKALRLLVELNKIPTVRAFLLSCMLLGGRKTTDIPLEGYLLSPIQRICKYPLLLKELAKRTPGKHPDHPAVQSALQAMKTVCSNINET

P-Rex1 Rac-GEF activity reduced to (P-Rex1 DHPH domains)	remaining activity at 10 µM (P-Rex1 DHPH domains; [1])	IC50 (P-Rex1 DHPH domains)	P-Rex1 Rac-GEF activity reduced to (P-Rex1 DH domain; P-Rex1 DH domain)	remaining activity at 10 µM (P-Rex1 DH domain; 200 nM EE-P-Rex1 DH domain, 200 nM prenylated EE-Rac1, compounds 11-29)	% P-Rex1 activity remaining (P-Rex1 DHPH domains; [1])	SMILES
below 10%	9%	2.7 µM				N#CC1=C(N)Oc2n[nH]c(-c3ccc(C(F)(F)F)cc3)c2C1c1ccc(-c2ccc(Cl)cc2)o1 (stereo not shown) [#116]
			below 10%	4%		CCc1[nH]nc2c1C(c1ccc(-c3ccc(Cl)cc3)o1)C(C#N)=C(N)O2 (stereo not shown) [#26]
below 10%	2%	2 µM				COc1ccc(-c2[nH]nc3c2C(c2ccc(-c4ccc(OC)c(Cl)c4)o2)C(C#N)=C(N)O3)cc1 (stereo not shown) [#61]
					58%	COc1cc(NC(=O)c2ccc(-c3ccc(Cl)cc3)o2)cc(OC)c1 [#66]
below 10%	-2.19%					COc1ccc(-c2ccc(C3C(C#N)=C(N)Oc4n[nH]c(-c5ccc(Cl)cc5)c43)o2)cc1Cl (stereo not shown) [#76]
below 10%	1.69%					COc1ccc(-c2ccc(C3C(C#N)=C(N)Oc4n[nH]c(-c5ccc(C)cc5)c43)o2)cc1Cl (stereo not shown) [#72]
